ChEMBL document CHEMBL1208760, “New antifungal peptides. Synthesis, bioassays and initial structure prediction by CD spectroscopy” (2010)

What was measured:
Format in all cases: functional
Details in all cases: read-out: GI
Candida albicans [1] = test: Antifungal activity against Candida albicans ATCC 10231 assessed as inhibition of fungal growth at 12.5 uM
Candida albicans [2] = test: Antifungal activity against Candida albicans ATCC 10231 assessed as inhibition of fungal growth at 50 uM
Cryptococcus neoformans [3] = test: Antifungal activity against Cryptococcus neoformans ATCC 32264 assessed as inhibition of fungal growth at 12.5 uM
Cryptococcus neoformans [4] = test: Antifungal activity against Cryptococcus neoformans ATCC 32264 assessed as inhibition of fungal growth at 6.25 uM
Cryptococcus neoformans [5] = test: Antifungal activity against Cryptococcus neoformans ATCC 32264 assessed as inhibition of fungal growth at 100 uM
Cryptococcus neoformans [6] = test: Antifungal activity against Cryptococcus neoformans ATCC 32264 assessed as inhibition of fungal growth at 50 uM
Cryptococcus neoformans [7] = test: Antifungal activity against Cryptococcus neoformans ATCC 32264 assessed as inhibition of fungal growth at 25 uM
Cryptococcus neoformans [8] = test: Antifungal activity against Cryptococcus neoformans ATCC 32264 assessed as inhibition of fungal growth at 200 uM
Candida albicans [9] = test: Antifungal activity against Candida albicans ATCC 10231 assessed as inhibition of fungal growth at 25 uM
Candida albicans [10] = test: Antifungal activity against Candida albicans ATCC 10231 assessed as inhibition of fungal growth at 100 uM
Candida albicans [11] = test: Antifungal activity against Candida albicans ATCC 10231 assessed as inhibition of fungal growth at 6.25 uM
Candida albicans [12] = test: Antifungal activity against Candida albicans ATCC 10231 assessed as inhibition of fungal growth at 200 uM

Molecule	inhibition of growth at 12.5 µM (Candida albicans [1])	inhibition of growth at 50 µM (Candida albicans [2])	inhibition of growth at 12.5 µM (Cryptococcus neoformans [3])	inhibition of growth at 6.25 µM (Cryptococcus neoformans [4])	inhibition of growth at 100 µM (Cryptococcus neoformans [5])	inhibition of growth at 50 µM (Cryptococcus neoformans [6])	inhibition of growth at 25 µM (Cryptococcus neoformans [7])	inhibition of growth at 200 µM (Cryptococcus neoformans [8])	inhibition of growth at 25 µM (Candida albicans [9])	inhibition of growth at 100 µM (Candida albicans [10])	inhibition of growth at 6.25 µM (Candida albicans [11])	inhibition of growth at 200 µM (Candida albicans [12])
CC[C@H](C)[C@H](NC(=O)[C@H](CCCCN)NC(=O)[C@@H](NC(=O)[C@H](CCC(N)=O)NC(=O)[C@H](CCCNC(=N)N)NC(=O)[C@H](Cc1c[nH]c2ccccc12)NC(=O)[C@H](CCCNC(=N)N)NC(=O)[C@H](Cc1ccccc1)NC(=O)[C@@H](N)Cc1cnc[nH]1)[C@@H](C)CC)C(=O)N[C@@H](Cc1c[nH]c2ccccc12)C(=O)N[C@@H](Cc1ccccc1)C(=O)N[C@@H](CCC(N)=O)C(=O)N[C@@H](CC(N)=O)C(=O)N[C@@H](CCCNC(=N)N)C(=O)N[C@@H](CCCNC(=N)N)C(=O)N[C@@H](CCSC)C(=O)N[C@@H](CCCCN)C(=O)N[C@@H](Cc1c[nH]c2ccccc12)C(=O)N[C@@H](CCCCN)C(=O)N[C@@H](CCCCN)C(N)=O	3.85%	93.4%	74.3%	51%	100%	87.3%	85.9%	100%	4.86%	100%	0.9%	100%
CC[C@H](C)[C@H](NC(=O)[C@H](CCCCN)NC(=O)[C@@H]1CCCN1C(=O)[C@H](CCC(N)=O)NC(=O)[C@@H](N)CCCNC(=N)N)C(=O)N[C@H](Cc1c[nH]c2ccccc12)C(=O)N[C@@H](Cc1ccccc1)C(=O)N1CCC[C@H]1C(=O)N[C@@H](CC(N)=O)C(=O)N[C@@H](CCCNC(=N)N)C(=O)N[C@@H](CCCNC(=N)N)C(=O)N[C@@H](CCCCN)C(=O)N1CCC[C@H]1C(=O)N[C@@H](Cc1c[nH]c2ccccc12)C(=O)N[C@@H](CCCCN)C(=O)N[C@@H](CCCCN)C(N)=O	6.1%	41.4%	100%	79.9%	100%	100%	100%	100%	15.4%	100%	0%	100%
C[C@@H]1[C@H](O)[C@@H](C)/C=C/C=C/C=C/C=C/C=C/C=C/C=C/[C@H](O[C@@H]2O[C@H](C)[C@@H](O)[C@H](N)[C@@H]2O)C[C@@H]2O[C@](O)(C[C@@H](O)C[C@@H](O)[C@H](O)CC[C@@H](O)C[C@@H](O)CC(=O)O[C@H]1C)C[C@H](O)[C@H]2C(=O)O [AMPHOTERICIN B]	100%	100%	100%	100%	100%	100%	100%	100%	100%	100%	100%	100%
CC(=O)N1CCN(c2ccc(OCC3COC(Cn4ccnc4)(c4ccc(Cl)cc4Cl)O3)cc2)CC1 (configuration not stated) [KETOCONAZOLE]	100%	100%	100%	100%	100%	100%	100%	100%	100%	100%	100%	100%
CC[C@H](C)[C@H](NC(=O)[C@H](CCCCN)NC(=O)[C@@H](NC(=O)[C@H](CCC(N)=O)NC(=O)[C@@H](N)CCCNC(=N)N)[C@@H](C)CC)C(=O)N[C@@H](Cc1c[nH]c2ccccc12)C(=O)N[C@@H](Cc1ccccc1)C(=O)N[C@@H](CCC(N)=O)C(=O)N[C@@H](CC(N)=O)C(=O)N[C@@H](CCCNC(=N)N)C(=O)N[C@@H](CCCNC(=N)N)C(=O)N[C@@H](CCSC)C(=O)N[C@@H](CCCCN)C(=O)N[C@@H](Cc1c[nH]c2ccccc12)C(=O)N[C@@H](CCCCN)C(=O)N[C@@H](CCCCN)C(N)=O [PENETRATIN]	4%	95%	90%	60%	100%	100%	100%	100%	91%	100%	0%	100%
H-KKWKMRRNQFWIKIQR-NH2	12%	100%	89.5%	55.9%	100%	99%	94.1%	100%	25.8%	100%	0%	100%
